Experimental data reported in patent US10111874B2, “Combination therapies for treatment of cancer” (Araxes Pharma LLC, priority 2014, dated 2018).

The compounds below were run against T1, KRAS G12C 1-169, his-tagged protein, GDP-loaded (Homo sapiens, UniProt P01116, G12C) (assay: Biochemical assay: covalent binding to KRAS G12C analyzed by mass spectrometry). Conditions: compounds 1-47, measured at 24 h.
T1 construct: KRAS G12C 1-169, his-tagged protein, GDP-loaded
Note: test concentration or dose not given here.

T1 sequence (P01116 1-169 isoform P01116-2 G12C): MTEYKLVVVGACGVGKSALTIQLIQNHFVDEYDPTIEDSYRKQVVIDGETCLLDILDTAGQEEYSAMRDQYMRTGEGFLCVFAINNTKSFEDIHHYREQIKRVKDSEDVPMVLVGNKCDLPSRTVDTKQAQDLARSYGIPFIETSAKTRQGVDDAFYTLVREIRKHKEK

| Compound | Binding % |
| --- | --- |
| C=CC(=O)N1CCN(c2ncnc3cc(Cl)c(-c4ccc(C)s4)cc23)CC1 [Compound I-26, 1-(4-(7-chloro-6-(5-methylthiophen-2-yl)quinazolin-4-yl)piperazin-1-yl)prop-2-en-1-one] | ++ (++indicates binding activity greater than 25% and up to 50%) |
| C=CC(=O)N1CCN(c2ncnc3cc(Cl)c(-c4cc(Cl)ccc4Cl)cc23)CC1 [Compound I-9, 1-(4-(7-chloro-6-(2,5-dichlorophenyl)quinazolin-4-yl)piperazain-1-yl)prop-2-en-1-one] | +++ (+++indicates binding activity greater than 50% and up to 75%) |
| C=CC(=O)N1CCN(c2ncnc3cc(Cl)c(-c4ccc(Cl)s4)cc23)CC1 [Compound I-34, 1-(4-(7-chloro-6-(5-chlorothiophen-2-yl)quinazolin-4-yl)piperazin-1-yl)prop-2-en-1-one] | +++ (+++indicates binding activity greater than 50% and up to 75%) |

Same assay, conditions: compounds 48-246, measured at 2 h

| Compound | Binding % |
| --- | --- |
| C=CC(=O)N1CCN(c2ncnc3cc(-c4cccc5c4OC(F)(F)O5)c(Cl)cc23)CC1 [Compound I-200, 1-(4-(6-chloro-7-(2,2-difluorobenzo[d][1,3]dioxol-4-yl)quinazolin-4-yl)piperazin-1-yl)prop-2-en-1-one] | ++ (++indicates binding activity greater than 25% and up to 50%) |
| C=CC(=O)N1CCN(c2ncnc3cc(-c4ccccc4F)c(C(F)(F)F)cc23)CC1 [Compound I-150, 1-(4-(7-(2-fluorophenyl)-6-(trifluoromethyl)quinazolin-4-yl)piperazin-1-yl)prop-2-en-1-one] | ++++ (++++indicates binding activity greater than 75%) |
| C=CC(=O)N1CCN(c2ncnc3cc(-c4ccccc4)c(Cl)cc23)CC1 [Compound I-67, 1-(4-(6-chloro-7-phenylquinazolin-4-yl)piperazin-1-yl)prop-2-en-1-one] | +++ (+++indicates binding activity greater than 50% and up to 75%) |
| C=CC(=O)N1CCN(c2ncnc3cc(Cl)c(-c4cccs4)cc23)CC1C#N (stereo not shown) [Compound I-51, 1-acryoyl-4-(7-chloro-6-(thiophen-2-yl)quinazaolin-4-yl)piperazine-2-carbonitrile] | ++++ (++++indicates binding activity greater than 75%) |
| C=CC(=O)N1CCN(c2ncnc3cc(-c4ccccc4C(F)(F)F)c(Cl)cc23)CC1C(N)=O (stereo not shown) [Compound I-121, 1-acryloyl-4-(6-chloro-7-(2-(trifluoromethyl)phenyl)quinazolin-4-yl)piperazine-2-carboxamide] | ++++ (++++indicates binding activity greater than 75%) |
| C=CC(=O)N1CCN(c2ncnc3cc(-c4cccc5[nH]ncc45)c(Cl)cc23)CC1 [Compound I-167, 1-(4-(6-chloro-7-(1H-indazol-4-yl)quinazolin-4-yl)piperazin-1-yl)prop-2-en-1-one] | + (+indicates binding activity from 5% to 25%) |
| C=CC(=O)N1CCN(c2ncnc3cc(-c4cccc5ncoc45)c(Cl)cc23)CC1 [Compound I-129, 1-(4-(7-(benzo[d]oxazol-7-yl)-6-chloroquinazolin-4-yl)piperazin-1-yl)prop-2-en-1-one] | + (+indicates binding activity from 5% to 25%) |
| N#C/C(=C\c1cncs1)C(=O)N1CCN(c2ncnc3cc(-c4ccccc4F)c(Cl)cc23)CC1 [Compound I-245, (E)-2-(4-(6-chloro-7-(2-fluorophenyl)quinazolin-4-yl)piperazine-1-carbonyl)-3-(thiazol-5-yl)acrylonitrile] | + (+indicates binding activity from 5% to 25%) |
| C=CC(=O)N1CCN(c2ncnc3cc(-c4cccc5c4CCC(=O)N5)c(Cl)cc23)CC1 [Compound I-205, 5-(4-(4-acryloylpiperazin-1-yl)-6-chloroquinazolin-7-yl)-3,4-dihydroquinolin-2(1H)-one] | + (+indicates binding activity from 5% to 25%) |
| C=CC(=O)N1CCN(c2ncnc3cc(Cl)c(C4CC4)cc23)CC1C#N (stereo not shown) [Compound I-55, 1-acryloyl-4-(7-chloro-6-cyclopropylquinazolin-4-yl)piperazine-2-carbonitrile] | ++++ (++++indicates binding activity greater than 75%) |
| C=CC(=O)N1CCN(c2c(C#N)cnc3c(F)c(-c4c(O)cccc4F)c(Cl)cc23)CC1 [Compound I-246, 4-(4-acryloylpiperazin-1-yl)-6-chloro-8-fluoro-7-(2-fluoro-6-hydroxyphenyl)quinoline-3-carbonitrile] | ++++ (++++indicates binding activity greater than 75%) |
| C=CC(=O)N1CCN(c2ncnc3cc(-c4cccc5ccccc45)c(Cl)cc23)CC1 [Compound I-123, 1-(4-(6-chloro-7-(naphthalen-1-yl)quinazolin-4-yl)piperazin-1-yl)prop-2-en-1-one] | ++++ (++++indicates binding activity greater than 75%) |

Same assay, conditions: compounds 247-342, measured at 30 min

| Compound | Binding % |
| --- | --- |
| C=CC(=O)N1CCN(c2ncnc3c(F)c(-c4ccc(F)cc4C(F)(F)F)c(Cl)cc23)CC1 [Compound I-275, 1-(4-(6-chloro-8-fluoro-7-(4-fluoro-2-(trifluoromethyl)phenyl)quinazolin-4-yl)piperazin-1-yl)prop-2-en-1-one] | ++ (++indicates binding activity greater than 25% and up to 50%) |
| C=CC(=O)N1CCN(c2ncnc3c(F)c(-c4c(O)cccc4Cl)c(Cl)cc23)CC1 [Compound I-289, 1-(4-(6-chloro-7-(2-chloro-6-hydroxyphenyl)-8-fluoroquinazolin-4-yl)piperazin-1-yl)prop-2-en-1-one] | +++ (+++indicates binding activity greater than 50% and up to 75%) |
| C=CC(=O)N1CCN(c2nc(-c3cncs3)nc3c(F)c(-c4c(C)ccc5[nH]ncc45)c(Cl)cc23)CC1 [Compound 332, 1-(4-(6-chloro-8-fluoro-7-(5-methyl-1H-indazol-4-yl)-2-(thiazol-5-yl)quinazolin-4-yl)piperazin-1-yl)prop-2-en-1-one] | ++ (++indicates binding activity greater than 25% and up to 50%) |
| C=CC(=O)N1CCN(c2cnnc3cc(-c4c(O)ccc5ccccc45)c(Cl)cc23)CC1 [Compound I-258, 1-(4-(6-chloro-7-(2-hydroxynaphthalen-1-yl)cinnolin-4-yl)piperazin-1-yl)prop-2-en-1-one] | ++ (++indicates binding activity greater than 25% and up to 50%) |
| C=CC(=O)N1CCN(c2nc(-c3ccn[nH]3)nc3c(F)c(-c4c(C)ccc5[nH]ncc45)c(Cl)cc23)CC1 [Compound 309, 1-(4-(6-chloro-8-fluoro-7-(5-methyl-1H-indazol-4-yl)-2-(1H-pyrazol-5-yl)quinazolin-4-yl)piperazin-1-yl)prop-2-en-1-one] | +++ (+++indicates binding activity greater than 50% and up to 75%) |
| C=CC(=O)N1CCN(c2ncnc3c(F)c(-c4c(C)ccc5[nH]ncc45)c(Cl)cc23)CC1C (stereo not shown) [Compound 327, 1-(4-(6-chloro-8-fluoro-7-(5-methyl-1H-indazol-4-yl)quinazolin-4-yl)-2-methylpiperazin-1-yl)prop-2-en-1-one] | ++ (++indicates binding activity greater than 25% and up to 50%) |
| C=CC(=O)N1CCN(c2ncnc3c(F)c(-c4c(C)cccc4OC)c(Cl)cc23)CC1 [Compound I-287, 1-(4-(6-chloro-8-fluoro-7-(2-methoxy-6-methylphenyl)quinazolin-4-yl)piperazin-1-yl)prop-2-en-1-one] | ++ (++indicates binding activity greater than 25% and up to 50%) |
| C=CC(=O)N1CCN(c2ncnc3c(F)c(-c4c(F)ccc(F)c4O)c(Cl)cc23)CC1 [Compound I-277, 1-(4-(6-chloro-7-(3,6-ddifluoro-2-hydroxyphenyl)-8-fluoroquinazolin-4-yl)piperazin-1-yl)prop-2-en-1-one] | + (+indicates binding activity from 5% to 25%) |
| C=CC(=O)N1CCN(c2ncnc3c(F)c(-c4c(C)ccc5cn[nH]c45)c(Cl)cc23)CC1 [Compound I-274, 1-(4-(6-chloro-8-fluoro-7-(6-methyl-1H-indazol-7-yl)quinazolin-4-yl)piperazin-1-yl)prop-2-en-1-one] | ++++ (++++indicates binding activity greater than 75%) |
| C=CC(=O)N1CCN(c2ncnc3cc(-c4cc(Cl)cc5cn[nH]c45)c(Cl)cc23)CC1 [Compound I-264, 1-(4-(6-chloro-7-(5-chloro-1H-indazol-7-yl)quinazolin-4-yl)piperazin-1-yl)prop-2-en-1-one] | ++ (++indicates binding activity greater than 25% and up to 50%) |

Same assay, conditions: determined at 2 hrs

| Compound | Binding % |
| --- | --- |
| C=CC(=O)N1CC(N2CCN(C(=O)/C=C/c3cc(C4CC4)c(Cl)cc3O)CC2)C1 [II-62, (E)-1-(4-(1-Acryloylazetidin-3-yl)piperazin-1-yl)-3-(4-chloro-5-cyclopropyl-2-hydroxyphenyl)prop-2-en-1-one] | + (+indicates binding activity from 5% to 20%) |

Same assay, conditions: determined at 24 hrs

| Compound | Binding % |
| --- | --- |
| C=CC(=O)N1CCN(C(=O)c2cc(-c3ccc(Cl)cc3Cl)c[nH]2)CC1 [III-32, 1-(4-(4-(2,4-Dichlorophenyl)-1H-pyrrole-2-carbonyl)piperazin-1-yl)prop-2-en-1-one] | ++++ (++++indicates binding activity greater than 30%) |
| C=CC(=O)N1CC(N2CCN(C(=O)CNc3cc4ccccc4cc3O)CC2)C1 [II-43, 1-(3-(4-(2-(3-hydroxynaphthalen-2-ylamino)acetyl)-piperazin-1-yl)azetidin-1-yl)prop-2-en-1-one] | ++++ (++++indicates binding activity greater than 50%) |
| C=CC(=O)NC1CN(C2CN(C(=O)CNc3cc(C4CC4)c(Cl)cc3O)C2)C1 [II-45, N-(1′-(2-(4-chloro-5-cyclopropyl-2-hydroxyphenyl-amino)acetyl)-1,3′-biazetidin-3-yl)acrylamide] | ++++ (++++indicates binding activity greater than 50%) |
| C=CC(=O)NC1CN(C2CN(C(=O)CNc3cc(Cl)c(Cl)cc3O)C2)C1 [II-3, N-(1′-(2-(4,5-dichloro-2-hydroxyphenyl-amino)acetyl)-1,3′-biazetidin-3-yl)acrylamide] | ++++ (++++indicates binding activity greater than 50%) |
| C=CC(=O)N1CC(N2CCN(C(=O)Cn3ccc4ccccc43)CC2)C1 [II-29, 1-(3-(4-(2-(1H-indol-1-yl)acetyl)piperazin-1-yl)azetidin-1-yl)prop-2-en-1-one] | + (+indicates binding activity from 5% to 15%) |
